Laboratory results: the supplement of paper PMC11061612

Key:
Assay in all cases: Bliss excess, mean over the matrix (fraction); higher = more synergy
[1] = tested on: SNU-61 (Colorectal Carcinoma)
Summary of the method: (§1)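 Cell lines grown in DMEM/F12 or RPMI with 10% FBS were plated in 1536-well plates and held 24 hours at 37°C, 5% CO2 before 72 hours of exposure to two-drug dose matrices, with DMSO typically at 0.2%. CellTiter-Glo 2.0 luminescence gave viability, which was converted to inhibition. Vehicle wells were set to 0 and blank wells to 1. Combination Emax is the second-highest inhibition in the matrix, and Bliss excess is the observed combination effect minus the expected EA + EB − EA·EB, where EA and EB are the single-agent effects.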

[2] = tested on: CAL-39 (Other Solid Carcinomas)
Summary of the method: as §1

[3] = tested on: GDM-1 (Acute Myeloid Leukemia)
Summary of the method: as §1

[4] = tested on: MEG-01 (Chronic Myelogenous Leukemia)
Summary of the method: as §1

[5] = tested on: NCI-H1688 (Small Cell Lung Carcinoma)
Summary of the method: as §1

[6] = tested on: HCC1143 (Breast Carcinoma)
Summary of the method: as §1

CS1 (Chondrosarcoma) = tested on: CS1 (Chondrosarcoma)
Summary of the method: as §1

[7] = tested on: KG-1 (Acute Myeloid Leukemia)
Summary of the method: as §1

[8] = tested on: ETK-1 (Biliary Tract Carcinoma)
Summary of the method: as §1

MSTO-211H (Mesothelioma) = tested on: MSTO-211H (Mesothelioma)
Summary of the method: as §1

[9] = tested on: SK-LMS-1 (Other Solid Carcinomas)
Summary of the method: as §1

[10] = tested on: 647-V (Bladder Carcinoma)
Summary of the method: as §1

CN(CCO)CC[C@H](CSc1ccccc1)Nc1ccc(S(=O)(=O)NC(=O)c2ccc(N3CCC([C@@H](O)c4ccccc4-c4ccc(Cl)cc4)CC3)cc2)cc1S(=O)(=O)C(F)(F)F [AZD4320] + C=CCn1c(=O)c2cnc(Nc3ccc(N4CCN(C)CC4)cc3)nc2n1-c1cccc(C(C)(C)O)n1 [AZD1775] (first compound max 1 µM, partner max 1 µM)
Bliss excess [1]: -0.0175 | Bliss excess [2]: -0.0529 | Bliss excess [3]: 0.0814 | Bliss excess [4]: 0.0516 | Bliss excess [5]: 0.0959 | Bliss excess [6]: -0.0111 | Bliss excess (CS1 (Chondrosarcoma)): -0.0017 | Bliss excess [7]: 0.108 | Bliss excess [8]: -0.0295 | Bliss excess (MSTO-211H (Mesothelioma)): 0.0585 | Bliss excess [9]: 0.0447 | Bliss excess [10]: 0.0479

CN(CCO)CC[C@H](CSc1ccccc1)Nc1ccc(S(=O)(=O)NC(=O)c2ccc(N3CCC([C@@H](O)c4ccccc4-c4ccc(Cl)cc4)CC3)cc2)cc1S(=O)(=O)C(F)(F)F [AZD4320] + CCN(CCO)CCCOc1ccc2c(Nc3cc(CC(=O)Nc4cccc(F)c4)[nH]n3)ncnc2c1 [AZD2811] (first compound max 1 µM, 7x7, partner max 1 µM)
Bliss excess [1]: -0.0262 | Bliss excess [2]: 0.0236 | Bliss excess [3]: 0.0067 | Bliss excess [4]: -0.0205 | Bliss excess [5]: 0.0729 | Bliss excess [6]: -0.0091 | Bliss excess (CS1 (Chondrosarcoma)): 0.0355 | Bliss excess [7]: 0.0803 | Bliss excess [8]: -0.0297 | Bliss excess (MSTO-211H (Mesothelioma)): 0.0471 | Bliss excess [9]: 0.0619 | Bliss excess [10]: 0.114

CN(CCO)CC[C@H](CSc1ccccc1)Nc1ccc(S(=O)(=O)NC(=O)c2ccc(N3CCC([C@@H](O)c4ccccc4-c4ccc(Cl)cc4)CC3)cc2)cc1S(=O)(=O)C(F)(F)F [AZD4320] + CN(C)CCCOc1ccc(-c2ccc3ncc4c(c3c2)n(C2CCOCC2)c(=O)n4C)cn1 [AZD0156] (first compound max 1 µM, 7x7, partner max 1 µM)
Bliss excess [1]: -0.0248 | Bliss excess [2]: -0.0247 | Bliss excess [3]: -0.0248 | Bliss excess [4]: -0.0262 | Bliss excess [5]: 0.0127 | Bliss excess [6]: 0.0124 | Bliss excess (CS1 (Chondrosarcoma)): -0.0477 | Bliss excess [7]: 0.0215 | Bliss excess [8]: -0.0509 | Bliss excess (MSTO-211H (Mesothelioma)): 0.0078 | Bliss excess [9]: -0.0477 | Bliss excess [10]: 0.0212

CN(CCO)CC[C@H](CSc1ccccc1)Nc1ccc(S(=O)(=O)NC(=O)c2ccc(N3CCC([C@@H](O)c4ccccc4-c4ccc(Cl)cc4)CC3)cc2)cc1S(=O)(=O)C(F)(F)F [AZD4320] + C[C@@H]1COCCN1C2=NC(=NC(=C2)C3(CC3)[S@](=N)(=O)C)C4=C5C=CNC5=NC=C4 [AZD6738] (first compound max 1 µM, 7x7, partner max 10 µM)
Bliss excess [1]: -0.0406 | Bliss excess [2]: -0.0685 | Bliss excess [3]: -0.0144 | Bliss excess [4]: -0.0267 | Bliss excess [5]: -0.0076 | Bliss excess [6]: -0.0812 | Bliss excess (CS1 (Chondrosarcoma)): -0.0499 | Bliss excess [7]: 0.0279 | Bliss excess [8]: -0.0463 | Bliss excess (MSTO-211H (Mesothelioma)): 0.0002 | Bliss excess [9]: -0.0432 | Bliss excess [10]: -0.0222

CN(CCO)CC[C@H](CSc1ccccc1)Nc1ccc(S(=O)(=O)NC(=O)c2ccc(N3CCC([C@@H](O)c4ccccc4-c4ccc(Cl)cc4)CC3)cc2)cc1S(=O)(=O)C(F)(F)F [AZD4320] + Cc1cc2ncnn2cc1Nc1ncc2c(n1)n(C1CCOCC1)c(=O)n2C [AZD7648] (first compound max 1 µM, 7x7, partner max 10 µM)
Bliss excess [1]: -0.0254 | Bliss excess [2]: -0.03 | Bliss excess [3]: -0.0041 | Bliss excess [4]: 0.0304 | Bliss excess [5]: 0.0024 | Bliss excess [6]: -0.0021 | Bliss excess (CS1 (Chondrosarcoma)): -0.02 | Bliss excess [7]: 0.0526 | Bliss excess [8]: -0.0639 | Bliss excess (MSTO-211H (Mesothelioma)): -0.0237 | Bliss excess [9]: 0.001 | Bliss excess [10]: -0.0508

Cc1c2c(nn1C)CSCc1cc(n(C)n1)CSc1cc(c3ccccc3c1)OCCCc1c(C(=O)O)n(C)c3c-2c(Cl)ccc13 [AZD5991] + C1CN(CCC1(C(=O)N[C@@H](CCO)C2=CC=C(C=C2)Cl)N)C3=NC=NC4=C3C=CN4 [Capivasertib] (first compound max 1 µM, 7x7, partner max 3 µM)
Bliss excess [1]: -0.0174 | Bliss excess [2]: -0.0203 | Bliss excess [3]: 0.0461 | Bliss excess [4]: -0.0122 | Bliss excess [5]: 0.015 | Bliss excess [6]: 0.0114 | Bliss excess (CS1 (Chondrosarcoma)): -0.0261 | Bliss excess [7]: -0.0164 | Bliss excess [8]: -0.0525 | Bliss excess (MSTO-211H (Mesothelioma)): -0.0066 | Bliss excess [9]: 0.0054 | Bliss excess [10]: -0.0059

Cc1c2c(nn1C)CSCc1cc(n(C)n1)CSc1cc(c3ccccc3c1)OCCCc1c(C(=O)O)n(C)c3c-2c(Cl)ccc13 [AZD5991] + C=CCn1c(=O)c2cnc(Nc3ccc(N4CCN(C)CC4)cc3)nc2n1-c1cccc(C(C)(C)O)n1 [AZD1775] (first compound max 1 µM, partner max 1 µM)
Bliss excess [1]: -0.0118 | Bliss excess [2]: 0.0957 | Bliss excess [3]: 0.0207 | Bliss excess [4]: -0.0401 | Bliss excess [5]: -0.0502 | Bliss excess [6]: 0.0689 | Bliss excess (CS1 (Chondrosarcoma)): -0.0118 | Bliss excess [7]: 0.0391 | Bliss excess [8]: 0.0386 | Bliss excess (MSTO-211H (Mesothelioma)): 0.0284 | Bliss excess [9]: -0.0388 | Bliss excess [10]: 0.059

C[C@@H]1COCCN1c1cc(C2([S@](C)(=N)=O)CC2)nc(-c2ccnc3[nH]ccc23)n1 [AZD6738] + O=C(c1cc(Cc2n[nH]c(=O)c3ccccc23)ccc1F)N1CCN(C(=O)C2CC2)CC1 [Olaparib] (first compound max 10 µM, 7x7, partner max 10 µM)
Bliss excess [1]: -0.0019 | Bliss excess [3]: -0.0135 | Bliss excess [4]: -0.0458 | Bliss excess [5]: 0.0133 | Bliss excess [6]: -0.0284 | Bliss excess (CS1 (Chondrosarcoma)): 0.0318 | Bliss excess [7]: -0.0154 | Bliss excess [8]: 0.0197 | Bliss excess (MSTO-211H (Mesothelioma)): -0.0082 | Bliss excess [9]: 0.0027 | Bliss excess [10]: 0.0753

CCc1c2c(nc3ccc(O)cc13)-c1cc3c(c(=O)n1C2)COC(=O)[C@]3(O)CC [SN-38] + O=C(c1cc(Cc2n[nH]c(=O)c3ccccc23)ccc1F)N1CCN(C(=O)C2CC2)CC1 [Olaparib] (first compound max 0.3 µM, 7x7, partner max 10 µM)
Bliss excess [2]: 0.081 | Bliss excess [4]: 0.026 | Bliss excess [5]: 0.0337 | Bliss excess (CS1 (Chondrosarcoma)): 0.0141 | Bliss excess [8]: 0.0825 | Bliss excess (MSTO-211H (Mesothelioma)): 0.0376 | Bliss excess [9]: 0.0057
